Reference: PMC6271551 (2014)

Test system: F21T (DNA, G4) GGGTTAGGGTTAGGGTTAGGG
Test: FRET melting
Details: 0.1 M KCl, 10 mM sodium cacodylate pH 7.2, 0.25 µM DNA

ΔTm (50 µM compound)	ΔTm (120 µM compound, authors: almost no interaction)	SMILES
~ 15.5 °C	–	COc1ccc2cc3[n+](cc2c1OC)CCc1cc2c(cc1-3)OCO2
–	~ 5 °C	COc1ccc(Cc2nccc3cc(OC)c(OC)cc23)cc1OC
